In data set [1] the test system is Calcium-tolerant ventricular myocytes. Nature of the data set: Isolated cardiac myocyte studies, retention of radioactivity. In kind it is cell-based, male Sprague Dawley rats. The conditions noted are these: isolated myocytes. The source says:
Calcium-tolerant ventricular myocytes were isolated from hearts of male Sprague Dawley rats (200 g) according to the procedure of Wittenberg and Robinson (B. A. Wittenberg and T. F. Robinson, Cell Tissue Res., 216: 231, 1981) with modifications described previously (W. Rumsey, C. Schlosser, E. M. Nuutinen, M. Robiolio and D. F. Wilson, J. Biol. Chem., 265 (26): 15392, 1990). Cells were used immediately following morphological analysis (using a hemocytometer) of viability and were maintained at 37° C. during the experiments. The number of quiescent, rod shaped cells ranged from 70-90% within a total population of 5-9×10^6 cells.
The isolated myocytes were maintained in either a normoxic, hypoxic or anoxic state. Hypoxia was induced by providing an atmosphere of argon atop of the cells and sealing the flask during the incubation period. Glucose oxidase plus catalase (5/5 mg) was added to argon treated cells to provide anoxia. Cells were suspended (6.5-7.5×10^4 cells/ml) in isolation media and aliquots were added to incubation vials maintained at 37° C.
After incubation with a test compound, myocytes were deproteinated with 1% ice-cold perchloric acid and centrifuged at 12,000 rpm for 30 sec. The supernatent was separated from the pellet and each counted using a LKB 1282 gamma counter. Alternatively, myocytes were separated from the suspending media by passing the cells through 99% dibutyl phthalate by centrifugation at 12,000 rpm for 30 sec. The three phases were separated and counted as described above. Results for the Tc-99m complex of the compound in Example 1 are given below:
Values represent means ±S.E.M. for the number of experiments noted in the parentheses. The values are the percent of total radioactivity represented by each case. PCA pellet=perchloric acid-precipitated pellet which represents the activity associated with proteins/membranes. Cell pellet=whole cells passed through a layer of dibutyl phthalate (oil).
Several Tc-99m complexes were examined in isolated myocytes using the protocol described above. The percentage of activity retained in the cell pellet was determined under anoxic and normoxic states.

The test system of data set [2] is hypoxic ischemic border zone. Nature of the data set: Rabbit focal myocardial ischemia model (LAD occlusion), double-label autoradiography. The note with it: permanent LAD coronary artery ligation, intravenous tracer, heart sections. In kind it is in vivo. The procedure: A model of focal myocardial ischemia in the rabbit was developed, using permanent ligation of the left anterior descending (LAD) coronary artery. The model consisted of two studies. In the first, relative regional myocardial blood flow (MBF) and relative regional myocardial rate of glucose metabolism (MMRgl) were determined by autoradiography using a double-label study with the flow tracer ^99mTcCl(CDO)3MeB (R. K. Narra et al., J. Nucl. Med., 1989; 30:1830-1837) and ^14C-deoxy-glucose for MMRgl (L. Sokoloff et al., J. Neurochem., 1977, 28, 897-916). ^14C-deoxyglucose and the ^99mTc-hypoxia-localizing tracer were administered to a second group of rabbits with LAD coronary artery occlusion.
After the surgical preparation and 20 minutes of LAD occlusion, ^14C-deoxyglucose (130-150 μCi) was injected as an intravenous bolus, and timed arterial blood samples were obtained. Twenty-five minutes later, ^99mTcCl(CDO)3MeB (10-12 mCi) was administered intravenously. Five minutes later, the rabbits were sacrificed by intravenous injection of Nembutal and potassium chloride. The heart was excised, frozen in liquid Freon-22, and 20 μm coronal sections obtained with a Microtome. Autoradiographs were obtained on all sections. For the first exposure (˜14 hours duration) of Kodak XAR film, extra heavy duty aluminum foil was interposed between the tissue and film to block completely the radiation emanating from ^14C to obtain the MBF information derived from ^99mTcCl(CDO)3MeB alone. After three days (to allow for decay of ^99mTc); a second autoradiograph was obtained without foil. The second exposure lasted 6-8 days, and,provided an image of the regional distribution of ^14C-deoxyglucose.
In a separate experiment using the rabbit LAD occlusion model and the double-label autoradiography procedures described above, the performance of the ^99mTc complex of the ligand described in Example 1 was compared to that of ^14C-misonidazole.

The next data set concerns the target T1, xanthine oxidase (Bos taurus, UniProt P80457).
T1 construct: purchased Boeringer (sic; Boehringer)
Nature of the data set: Reduction of the Tc nitroimidazole complexes by xanthine oxidase. In kind it is biochemical. The note with it: xanthine oxidase 1.25 units, hypoxanthine, pH 7.4, anaerobic (argon), up to 7 hours. From the text:
The enzyme xanthine oxidase (in the presence of xanthine or hypoxanthine) is known to reduce the nitro group of such nitroimidazole-containing compounds as misonidazole and metronidazole (see for example P. D. Josephy, B. Palcic and L. D. Skarsgard,. “Reduction of Misonidazole and its Derivatives by Xanthine Oxidase”, Biochem. Pharmacol., 1981, 30, 849), and it has been postulated that such nitro reduction under anaerobic conditions is responsible for the selective trapping of these compounds in hypoxic tissue. Thus, a technetium or rhenium containing nitroimidazole complex should be capable of being reduced by xanthine oxidase under anaerobic conditions in the presence of hypoxanthine.
To a 2.5 mL quartz cuvette was added 0.25 micromoles of the ^99Tc-nitroimidazole complex of Example 6 or 6b in 125 μL of dimethylformamide, 1 mL of 0.01M hypoxanthine in pH 7.4 sodium phosphate buffer (0.1M), and 0.875 mL of 0.1M sodium phosphate buffer (pH 7.4) that contained 20 mg/L of disodium ethylenediamine tetraacetic acid (EDTA). The cuvette was sealed with a rubber septum, and purged with argon for 15 minutes to remove oxygen. To this was added 1.25 units of the enzyme xanthine oxidase (Boeringer) in 0.5 mL of deoxygenated pH 7.4 phosphate buffer. The cuvette was inverted to mix, and the UV/visible spectrum of the solution was recorded from 280 to 600 nm at 15 minute intervals.
It is believed that the disappearance of this nitro absorbance is due to reduction of the nitro group by xanthine oxidase.
In a parallel control reaction, the reagents above were mixed in the same fashion, but the ^99Tc complex of 3,3,9,9-tetramethyl-4,8-diazaundecane-2,10-dione dioxime (prepared by the method of Jurisson et al., Inorg. Chem., 1986, 25, 543) was substituted for the technetium complexes of Examples 6 or 6b.

Data set [3] in a line: Determination of reduction potential by cyclic voltammetry. The conditions noted are these: for Epc(V): cyclic voltammetry in dimethylformamide at Hg, vs. Ag/AgNO3; for Reduction process: cyclic voltammetry in dimethylformamide. The class given is physicochemical. On the procedure: The reduction potentials of misonidazole, ^99TcO(PnAO), and ^99Tc-hypoxia-localizing tracers were determined by cyclic voltammetry (C.V.) in dimethylformamide. […] The reference electrode was Ag/AgNO3 with an acetonitrile filling solution saturated with LiCl. The counter electrode was a platinum wire. Voltamograms at mercury were determined at scan rates of 50, 100, 200, and 500 mV/s.
The solutions used in C.V. studies contained test sample at a concentration of 0.2-0.7 mM and tetrabutylammonium tetrafluoroborate (Bu4NBF4) or tetrabutylammonium hexafluorophosphate (Bu4NPF6) supporting electrolyte at a concentration of 0.1M. The solution was deoxygenated by bubbling solvent-saturated nitrogen or argon through the solution for 15 minutes. Variations in the reference potential were accounted for by determining the C.V. of a Ru(acac)3 standard on a daily basis.

The test system of the next data set is hypoxic border zone. Description: Rat focal cerebral ischemia model (MCA occlusion), double-label autoradiography. The class given is in vivo, spontaneously hypertensive rats (SHR). The conditions noted are these: SHR, injected 1 hour or five days after MCA occlusion, both time points. On the procedure: A model of focal cerebral ischemia involving tandem occlusion of the internal carotid artery and the ipsilateral middle cerebral artery (MCA) in spontaneously hypertensive rats (SHR) was characterized using the double-label autoradiography procedure described in Example 10. […] Following surgery, which was performed under Halothane anesthesia, the rats were allowed to recover and one hour after the MCA occlusion, ^14C-deoxyglucose was injected as an IV bolus and timed arterial samples were obtained. Twenty-five minutes after ^14C-deoxyglucose injection, ^99mTcCl(DMG)32MP was injected as an IV bolus and the rat was sacrificed 15 seconds later. The brain was rapidly removed and sections and autoradiograms were obtained as described in Example 10. As found in Example 10 for the rabbit LAD occlusion model, the ischemic territory was bordered by a rim of tissue in which glycolysis was elevated. […] Nevertheless, it was clear that the ischemic region is surrounded by a border zone of increased glycolysis. In a second series of experiments, the ^99mTc complex of the ligand described in Example 1 and ^14C-deoxyglucose were co-injected 1 hour or five days after MCA occlusion.

T1 sequence (P80457 whole entry): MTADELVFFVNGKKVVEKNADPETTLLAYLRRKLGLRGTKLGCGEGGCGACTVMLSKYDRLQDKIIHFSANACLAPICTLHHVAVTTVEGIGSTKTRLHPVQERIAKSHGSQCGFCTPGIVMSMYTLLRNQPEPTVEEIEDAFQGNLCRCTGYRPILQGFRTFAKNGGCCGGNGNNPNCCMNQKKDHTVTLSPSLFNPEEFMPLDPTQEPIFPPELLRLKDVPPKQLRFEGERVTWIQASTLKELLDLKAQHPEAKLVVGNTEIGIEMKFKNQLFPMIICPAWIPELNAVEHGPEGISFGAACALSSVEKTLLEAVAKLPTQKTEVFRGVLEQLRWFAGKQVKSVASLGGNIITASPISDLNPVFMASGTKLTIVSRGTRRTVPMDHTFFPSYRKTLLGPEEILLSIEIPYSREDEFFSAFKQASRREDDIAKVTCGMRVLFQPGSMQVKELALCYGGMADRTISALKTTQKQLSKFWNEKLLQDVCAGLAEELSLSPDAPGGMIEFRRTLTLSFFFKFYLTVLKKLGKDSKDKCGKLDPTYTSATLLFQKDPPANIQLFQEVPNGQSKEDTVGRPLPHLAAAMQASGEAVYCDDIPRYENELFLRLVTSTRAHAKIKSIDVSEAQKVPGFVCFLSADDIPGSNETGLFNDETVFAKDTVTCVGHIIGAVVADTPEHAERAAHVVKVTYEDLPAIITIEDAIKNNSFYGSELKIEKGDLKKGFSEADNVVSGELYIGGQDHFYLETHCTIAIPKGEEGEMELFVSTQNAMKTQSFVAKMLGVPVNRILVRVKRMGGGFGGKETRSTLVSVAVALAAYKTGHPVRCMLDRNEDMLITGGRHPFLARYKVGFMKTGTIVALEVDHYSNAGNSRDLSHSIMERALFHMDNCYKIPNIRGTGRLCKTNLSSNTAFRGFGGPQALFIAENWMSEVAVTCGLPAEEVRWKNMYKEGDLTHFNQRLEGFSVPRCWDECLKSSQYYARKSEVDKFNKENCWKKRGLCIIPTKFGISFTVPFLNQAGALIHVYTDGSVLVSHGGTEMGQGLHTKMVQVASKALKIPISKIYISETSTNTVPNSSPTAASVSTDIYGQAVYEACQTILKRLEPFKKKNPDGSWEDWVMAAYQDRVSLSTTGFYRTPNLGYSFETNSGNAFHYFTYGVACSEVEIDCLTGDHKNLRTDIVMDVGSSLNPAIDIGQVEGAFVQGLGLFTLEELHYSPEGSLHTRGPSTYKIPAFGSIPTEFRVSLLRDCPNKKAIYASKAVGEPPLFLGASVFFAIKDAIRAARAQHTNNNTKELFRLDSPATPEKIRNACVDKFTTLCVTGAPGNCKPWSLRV

Take `CC(=NO)C(C)(C)NCC(C)CNC(C)(C)C(C)=NO` (stereo not shown) [^99mTc Complex of 6-methyl-PnAO, ^99mTc-complexes of 6-methyl PnAO (3,3,6,9,9-pentamethyl-4,8-diazaundecane-2,10-dione dioxime), metal not drawn, reference compound]: in data set [1] (% in Cell Pellet), the Anoxia/normoxia ratio turned out to be 1.3. Also, in data set [1] (several Tc-99m complexes), the “% in Cell Pellet, Anoxia” value is 22.7 (n = 1) % and the “% in Cell Pellet, Normoxia” value is reported as 17.4 (n = 1) %. Further, the “regional myocardial distribution pattern (autoradiography)” value in data set [2] was “no differentiation of ischemic and non-ischemic regions”.

Regarding `CC1=[N+](O)[99Tc-]23(=[O])[N](CC(O)C[N]2C1(C)C)C(C)(C)C(Cn1ccnc1[N+](=O)[O-])=[N+]3[O-]` (stereo not shown) [Example 6b, [^99Tc]Oxo[[6-hydroxy-3,3,9,9-tetramethyl-(2-nitro-1H-imidazo-1-yl)-4,8-diazaundecane-2,10-dione dioximato]-(3-)-N,N′,N″,N′″]technetium (V)], the “absorbance peak at approximately 320 nm (nitroimidazole functionality), UV/visible spectral change” value (“absorbance peak … UV/visible spectral change” below) at xanthine oxidase is given as “decreased in intensity”. Besides, the “Epc(V)” value in data set [3] (first or only reduction listed) was −1.48 V; in data set [3] (second reduction listed) it was −1.96 V. Moreover, the Reduction process entry in data set [3] (first or only reduction listed) is given as “reversible”; in data set [3] (second reduction listed), “irreversible”.

As for `CC1=[N+]([O-])[99Tc-]23(=[O])[N](CCC[N]2C(C)(C)C(C)=[N+]3O)C1(C)C` [^99TcO(PnAO), Tc(V) Oxo 3,3,9,9-tetramethyl-4-8-diazaundecane-2,10-dione-dioxime, reference compound], the “absorbance peak … UV/visible spectral change” value at xanthine oxidase is on record as “no spectral changes were observed over a period of 7 hours”. Besides, in data set [3] (first or only reduction listed), the “Epc(V)” value is given as −2.15 V and the Reduction process result is “irreversible”.

As for `CC1=[N+](O)[99Tc-]23(=[O])[N](CCC[N]2C1(C)C)C(C)(C)C(Cn1ccnc1[N+](=O)[O-])=[N+]3[O-]` [Example 6, [^99Tc]Oxo[[3,3,9,9-tetramethyl-1-(2-nitro-1H-imidazo-1-yl)-4,8-diazaundecane-2,10-dione dioximato]-(3-)-N,N′,N″,N′″]technetium(V)], the “absorbance peak … UV/visible spectral change” value on xanthine oxidase is given as “decreased in intensity”. Also, in data set [3] (first or only reduction listed), the “Epc(V)” value was −1.49 V and the Reduction process result is “reversible”. Moreover, in data set [3] (second reduction listed), the “Epc(V)” value is −1.99 V and the Reduction process entry is recorded as “irreversible”.

On to ^14C-deoxyglucose [reference compound], for which, in the data set on hypoxic border zone, the “uptake in brain autoradiograms” value is given as “increased uptake in the hypoxic border zone relative to surrounding normoxic tissue”. Also, the “regional myocardial distribution pattern (autoradiography)” value in data set [2] is “high uptake in the ischemic border zone”.

These data come from US6958141B2, “Rhenium and technetium complexes containing a hypoxia-localizing moiety” (Bracco International B.V., priority 1991, dated 2005).
